In US20230404971A1, “Combination Comprising Abemaciclib and 6-(2,4-Dichlorophenyl)-5-[4-[(3S)-1-(3-Fluoropropyl)Pyrrolidin-3-yl]Oxyphenyl]-8,9-Dihydro-7H-Benzo[7]Annulene-2-Carboxylic Acid” (Sanofi, priority 2020, published 2023):

Legend:
[1] = Tolerability (body weight, deaths) in the MCF7-Y537S xenograft study; type: in vivo
Procedure: The animals required for experiment (plus extra) were pooled and implanted with MCF7-Y537S tumor fragment tissues. […] Animal body weight was assessed daily.
The dosages are expressed in mg/kg and based on daily body weight per animal. Vehicle treated animals were used as controls. Mice were checked daily and adverse clinical reactions noted. Individual mice were weighed daily until the end of the experiment. Mice would be euthanized when morbid or weight loss ≥20% was observed. Tumors were measured with a caliper twice weekly until final sacrifice. When a tumor size reached approximately 2000 mm^3 or when there are animal health issues (40% area of a tumor ulcerated), animals would be euthanized and date of death recorded. Solid tumor volumes were estimated from two-dimensional tumor measurements and calculated according to the following equation: […]
Animal body weight included the tumor weight.

[2] = test system: MCF7-Y537S human breast cancer cell line xenograft; experiment: Anti-tumor efficacy against subcutaneous MCF7-Y537S human breast cancer cell line xenograft in female nude mice; type: in vivo, female BALB/c nude mice; set-up: key to Biological Interpretation: Active: ΔT/ΔC≤40% is considered as therapeutically active; Very active: ΔT/ΔC<0% is considered as tumor regression (very active); Inactive: ΔT/ΔC>40% is considered as therapeutically inactive; conditions: for Tumor volume changes from baseline, Median: n = 7
Procedure: In the present study, the anti-tumor efficacy of 6-(2,4-dichlorophenyl)-5-[4-[(3S)-1-(3-fluoropropyl)pyrrolidin-3-yl]oxyphenyl]-8,9-dihydro-7H-benzo[7]annulene-2-carboxylic acid (“compound (1)”), combined with abemaciclib, was investigated after 22 days treatment against a subcutaneous MCF7-Y537S human breast cancer cell line xenograft in female nude mice.
The treated groups included compound (1) at 20 mg/kg alone, abemaciclib at 70 mg/kg alone, and the combination of compound (1) and abemaciclib at the same dose and regime,
Compound (1) was orally dosed twice a day (BID) and abemaciclib was orally dosed once a day (QD) for 22 days. Anti-tumor efficacy was evaluated by tumor volume measurement.
Female BALB/c nude mice were obtained from Shanghai Sino-British SIPPR/BK Laboratory Animal Co., LTD (Shanghai, CHINA). Animals were allowed to acclimate for at least four days before the study enrollment. Mice were 6 to 8 weeks old and weighed between 18 and 24 grams at the beginning of the treatments. These animals were housed under conditions outlined in the guidelines approved by the Institutional Animal Care and Use Committee (IACUC) of WuXi AppTec following the guidance of the Association for Assessment and Accreditation of Laboratory Animal Care (AAALAC).
Parental MCF7 cells were obtained from the American Type Culture Collection (ATCC® HTB-22™). MCF7-Y537S (ESR1) cell line was MCF7 cells expressing the ER.Y537S variant that was generated by Sanofi Biology Discovery Group. Y537S mutation was introduced in ESR1 construct (GenBank NM_000125.3) by site directed mutagenesis (Toy W. et al., Cancer Discovery, 2017, 7, 277-287). The construct was transfected in MCF7 cells which were selected for their growth in absence of estradiol. MCF-Y537S is an ESR1 mutation that confers estrogen-independent activity to ERα (Estrogen Receptor alpha) and contributes to endocrine resistant disease (Robinson D. R. et al., Nat Genet., 2013, 45 (12), 1446-1451). The cells were grown in Eagle's Minimum Essential Medium (EMEM) supplemented with 10% fetal bovine serum (FBS), human Insulin, in 5% CO2 at 37° C. The cells were harvested in 0.25% Trypsin EDTA and washed by Phosphate Buffered Saline (PBS) and re-suspended in PBS with 75% Matrigel. The cells (20×10^6 cells/per mouse) were subcutaneously (SC) implanted into the right flank of female nude mice.
When the MCF7-Y537S tumors were established, the tumors were reserved as tumor stocks for fragment implantation. The tumors were serially propagated through fragment tissue transplantation subcutaneously. The fragment tumor tissues were subcutaneously implanted into the right flank of female nude mice. 28 mice were assigned in this experiment.
Abemaciclib (Manufacturer: Sanofi; Lot number: VAC.DLE20.006.1) was formulated in 40% SBE-β-CD in HCl 0.1N pH 3.0. Compound (1) was prepared in 5% Solutol HS15 (purchased from Sigma) at pH 3.0.
Dose volume for compound (1) and abemaciclib for oral administration: 10 ml/kg by oral gavage.
Doses: compound (1) at 20 mg/kg and abemaciclib at 70 mg/kg in the above volume.
The animals required for experiment (plus extra) were pooled and implanted with MCF7-Y537S tumor fragment tissues. On day 0 (20 days post implantation), the mice were pooled and randomly distributed to the treatment and control groups (7 mice per group), where median tumor volumes for each group was 173 mm^3. Treatments of compound (1) and abemaciclib were initiated on day 0. Compound (1) was orally administered at 20 mg/kg BID (8 hours apart) and abemaciclib was orally administered at 70 mg/kg QD, for 22 days. Animal body weight was assessed daily.
The dosages are expressed in mg/kg and based on daily body weight per animal. Vehicle treated animals were used as controls. Mice were checked daily and adverse clinical reactions noted. Individual mice were weighed daily until the end of the experiment. Mice would be euthanized when morbid or weight loss ≥20% was observed. […]

[3] = day 22, PO for 22 days, compound (1) 20 mg/kg BID, abemaciclib 70 mg/kg QD, alone or combined

CCN1CCN(Cc2ccc(Nc3ncc(F)c(-c4cc(F)c5nc(C)n(C(C)C)c5c4)n3)nc2)CC1 [Abemaciclib, N-{5-[(4-ethylpiperazin-1-yl)methyl]pyridin-2-yl}-5-fluoro-4-[4-fluoro-2-methyl-1-(propan-2-yl)-1H-benzimidazol-6-yl]pyrimidin-2-amine]
Body weight loss ([1]; compound (1) 20 mg/kg BID, abemaciclib 70 mg/kg QD, alone or combined, 22 days, PO): no significant body weight loss
Unscheduled death (Day of death) ([1]; deaths / animals in group, 22 days treatment): 0/7
Tumor volume changes from baseline, Median ([2]; Day 4, compound (1) 20 mg/kg BID, abemaciclib 70 mg/kg QD, alone or combined): 9.0 mm^3
Tumor volume changes from baseline, Median ([2]; Day 8, compound (1) 20 mg/kg BID, abemaciclib 70 mg/kg QD, alone or combined): 40.0 mm^3
Tumor volume changes from baseline, Median ([2]; Day 11, compound (1) 20 mg/kg BID, abemaciclib 70 mg/kg QD, alone or combined): 83.0 mm^3
Tumor volume changes from baseline, Median ([2]; Day 15, compound (1) 20 mg/kg BID, abemaciclib 70 mg/kg QD, alone or combined): 119.0 mm^3
Tumor volume changes from baseline, Median ([2]; Day 18, compound (1) 20 mg/kg BID, abemaciclib 70 mg/kg QD, alone or combined): 150.0 mm^3
Tumor volume changes from baseline, Median ([2]; Day 22, compound (1) 20 mg/kg BID, abemaciclib 70 mg/kg QD, alone or combined): 199.0 mm^3
Regressions Complete ([2]; animals with complete regression / animals in group, 22 days treatment): 0/7
Regressions Partial ([2]; animals with partial regression / animals in group, 22 days treatment): 0/7
Biological Interpretation ([2]; based on ΔT/ΔC at day 22): Active
Median % of regressions on day 22 [2, 3]: 0%
ΔT/ΔC in % at day 22 [2, 3]: 19%
Anti-tumor effect on tumor growth (in words) ([2]; day 22, versus control): statistically significant anti-tumor efficacy
